Data from patent US10034738B2, “Cardiac tissue constructs and methods of fabrication thereof” (THE GOVERNING COUNCIL OF THE UNIVERSITY OF TORONTO, priority 2012, dated 2018).
“Also recorded” adds a separate entry of the source.

What was measured:
[1] = test system: cardiac microwire; experiment: Optical mapping of transmembrane action potentials of cardiac microwire (voltage-sensitive dye); assay type: cell-based, human; settings: relative to the baseline
Experimental: (§1) Using drugs of known effects, the cardiac microwire was perturbed and optically mapped their response (transmembrane AP and intracellular calcium transient) using voltage- and calcium-sensitive dyes, respectively.
For optical measurements, microtissues were stained with […] of Di-4-ANEPPS (Invitrogen, Carlsbad Calif.) voltage-sensitive dye for 20 minutes, followed by 3 washouts with fresh warm Tyrode's solution (Sigma-Aldrich) adjusted to pH 7.4. The temperature was kept constant at 37° C. using a block incubator. Dye fluorescence was recorded using a microscope mapping system (Ultima, Scimedia, Tokyo Japan). The system included a CMOS camera with a 1 cm sensor (100×100 pixel) attached to a custom-built microscope using PLAN APO objective and condensing lenses (Leica Microsystems GmbH, Wetzlar Germany), giving a magnification of 1.5×. The spatial resolution was 63 μm/pixel. The fluorescence was excited using a Xenon light source (Moritek Corp. Japan) and a 530 nm green filter (Semrock, Rochester N.Y.) and the emission signal was long pass filtered using a 610 nm red filter. Tissue constructs were point stimulated at 1000-ms cycle length using a bipolar electrode made with 2 fine silver wires (AWG#32) inserted in a large stainless steel needle mounted on a micromanipulator. Spontaneous tissue beating was also recorded, in addition to responses to frequency sweep from 1 to 5 Hz. Local activation times were measured at the peak of dF/dT for each pixel. Activation maps were constructed for a selected beat.
Conduction velocity was calculated at each location using activation times of 9 neighbouring sites. Conduction velocity values from all sites were used to calculate the average conduction velocity across the construct surface; minimum and maximum values were also noted. Phase contrast images of microtissue surfaces were taken prior to optical mapping, to correlate tissue architecture geometry with conduction velocity. Concentrations of drugs used applied as indicated. […]

[2] = test system: cardiac tissue constructs; settings: relative to no-drug control, 15 minutes of incubation at 37 degrees Celsius, increasing concentrations
Experimental: In the present example, microwells with ramped support structures having retaining structures provided thereon, as described above, were seeded at 0.1×10^6 cells per tissue in 2.0 mg/mL Collagen 1. Tissues remodeled over two weeks along with contractile force as measured using the microcantilevers in the system. After two weeks, tissues were introduced with drugs in 100% DMSO vehicle. Final concentrations applied to tissues were ensured to be less than 0.01% DMSO to ensure non-toxic effects. Concentrations were mixed separately in a 96 well plate and applied to the tissues. Measurements were taken after 15 minutes of incubation with the drug at 37 degrees Celsius.
Videos of approximately 10 seconds were recorded and analyzed offline using ImageJ for each condition. […] Contractile force assays were conducted after the contractile force was plateaued to ensure no changes in contractile force due to tissue remodeling.

[3] = test system: cardiac microwire; experiment: Optical mapping of intracellular calcium transients of cardiac microwire (calcium-sensitive dye); assay type: cell-based, human
Experimental: as §1
Conduction velocity was calculated at each location using activation times of 9 neighbouring sites. Conduction velocity values from all sites were used to calculate the average conduction velocity across the construct surface; minimum and maximum values were also noted. Phase contrast images of microtissue surfaces were taken prior to optical mapping, to correlate tissue architecture geometry with conduction velocity. Concentrations of drugs used applied as indicated. Stock solutions were prepared as recommended by vendors: Epinephrine at 1:1000 (Hospira), Lidocaine at 1:1000 (Hospira), and Verapamil at 1:1000 (Sandoz).

[4] = test system: cardiac tissue constructs; experiment: Preliminary growth factor screen, excitation threshold (ET) of cardiac tissue constructs; assay type: cell-based; settings: compared to the control condition
Experimental: Tissue function was established by measuring excitation threshold (ET), the minimum voltage required to pace the tissue simultaneously, and maximum capture rate (MCR), the maximum stimulation rate at which the construct can be induced to beat simultaneously, at 7 days after cell seeding. Tissue constructs or cardiomyocyte aggregates were individually placed between a pair of carbon electrodes in stimulation chambers (autoclaved before use). ET (V/cm) was measured by stimulating the tissue with square pulses of 2 ms pulse width at a frequency of 1 or 2 Hz and gradually increasing the output voltage of the stimulator until >80% of the tissue was beating synchronously with the stimulator output. MCR was measured by setting the output voltage at 12 V, and increasing frequency until >80% of the tissue was no longer synchronously beating with the driving signal. […]
A preliminary screen was also performed in order to determine the maturation effect of growth factors. […] The challenge with higher level functional readouts with in vitro models is that further analyses need to be done to determine the mode of action. In order to determine the mechanism of IGF1 and HRG, other functional parameters as well as molecular readouts over a time course will be investigated.

## CCN(CC)CC(=O)Nc1c(C)cccc1C [Lidocaine]
[1]; increasing concentrations of Lidocaine, 2 μg/mL and 4 μg/mL
  AP activation rate: reduced and nearly abolished activation; also recorded: decreased the activation rate

## CC(C)(C)c1ccc(C(O)CCCN2CCC(C(O)(c3ccccc3)c3ccccc3)CC2)cc1 (stereo not shown) [Terfenadine]
[2]
  relative contractile force: reduce the contractile force (relative to control) with increasing concentrations

## COc1ccc(CCN(C)CCCC(C#N)(c2ccc(OC)c(OC)c2)C(C)C)cc1OC (stereo not shown) [Verapamil]
[3]; Verapamil 0.25 μg/mL, relative to the baseline
  amplitude of calcium waves: reduced the amplitude of calcium waves

## IGF1: one of seven growth factors in a preliminary maturation screen
[4]
  excitation threshold (ET): reduced ET compared to the control condition

## CNC[C@H](O)c1ccc(O)c(O)c1 [Epinephrine]
[3]; Epinephrine 0.1 μg/mL supplemented after Verapamil 0.25 μg/mL
  rate of calcium transients: increased the rate of calcium transients
[1]; Epinephrine 0.1 μg/mL
  AP activation rate: increased the AP activation rate relative to the baseline
[1]; Epinephrine 0.1 μg/mL, listed as epinephrine
  AP activation rate: increased activation rate
